# What was measured:
# Type in all cases: in vivo
# Design in all cases: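 grade 0 to 5 of growth suppression where 5 is 90% or more and 0 below 10%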
# [1] = test system: Echinochloa oryzicola Vasing; test: Herbicidal effects in paddy field soil treatment (Test Example 1); conditions: paddy field soil treatment; 1000 g of the active ingredient per hectare; wettable powder added dropwise on water surface; 21st day after treatment
# In short: (§1)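 Paddy soil pre-emergence test: seeds sown, flooded 3 cm; next day wettable powder in water applied dropwise to water surface, 1000 g a.i./ha; greenhouse; effect rated visually on scale at 21 d post-treatment.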
# [2] = test system: Monochoria vaginalis (Burm. f.) Presl var. plantaginea (Roxb.) Solms-Laub.; test: as above; conditions: paddy field soil treatment; 1000 g of the active ingredient per hectare; wettable powder added dropwise on water surface; 21st day after treatment
# In short: as §1
# [3] = test system: Scirpus juncoides Roxb. var. ohwianus. T. Koyama; test: as above; conditions: paddy field soil treatment; 1000 g of the active ingredient per hectare; wettable powder added dropwise on water surface; 21st day after treatment
# In short: as §1
# [4] = test system: Abutilon theophrasti medicus; test: Herbicidal effects in upland field soil treatment (Test Example 2); conditions: 1000 g active ingredient per hectare, 21st day after treatment, criteria of Table 138
# In short: (§2)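 Seeds sown in upland soil and covered; surface sprayed with water-diluted wettable powder, 1000 g a.i./ha, spray volume 1000 L/ha. Greenhouse growth, visual herbicidal rating at day 21.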
# Amaranthus viridis L. [5] = test: as above; conditions: 1000 g active ingredient per hectare, 21st day after treatment, criteria of Table 138
# In short: as §2
# [6] = test system: Abutilon theophrasti medicus; test: Herbicidal effects in upland field foliar treatment (Test Example 3); conditions: 1000 g of the active ingredient per hectare, 14th day after the treatment, wettable powder, criteria of Table 138
# In short: (§3)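 Greenhouse pot test, upland soil; 2-wk-old plants sprayed from above with water-diluted wettable powder (1000 L/ha spray volume, 1000 g a.i./ha). Regrown in greenhouse; visual herbicidal score on day 14 post-treatment.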
# Amaranthus viridis L. [7] = test: as above; conditions: 1000 g of the active ingredient per hectare, 14th day after the treatment, wettable powder, criteria of Table 138
# In short: as §3
# [8] = test system: Echinochloa crus-galli (L.) P. Beauv. var. crus-galli; test: as above; conditions: 1000 g of the active ingredient per hectare, 14th day after the treatment, wettable powder, criteria of Table 138
# In short: as §3
SMILES,"Herbicidal effects index, Echinochloa oryzicola Vasing [1]","Herbicidal effects index, Monochoria vaginalis (Burm. f.) Presl var. plantaginea (Roxb.) Solms-Laub. [2]","Herbicidal effects index, Scirpus juncoides Roxb. var. ohwianus. T. Koyama [3]",herbicidal effect (index) on Abutilon theophrasti medicus [4],herbicidal effect (index) on Amaranthus viridis L. (Amaranthus viridis L. [5]),herbicidal effects on Abutilon theophrasti medicus [6],herbicidal effects on Amaranthus viridis L. (Amaranthus viridis L. [7]),herbicidal effects on Echinochloa crus-galli (L.) P. Beauv. var. crus-galli [8]
CCc1cccc(-n2c(=O)c(C(=O)C3=C(O)CCCC3=O)nc3ccccc32)c1 [II-23],5,5,5,5,5,5,5,5
CCc1ccc(-n2c(=O)c(C(=O)C3=C(O)CCCC3=O)nc3ccccc32)cc1 [II-24],5,5,5,5,5,4,5,5
O=C1CCCC(O)=C1C(=O)c1nc2ccccc2n(-c2ccc(C3CC3)cc2)c1=O [II-33],5,5,5,4,5,5,5,5
O=C1CCCC(O)=C1C(=O)c1nc2ccccc2n(-c2cccc(C(F)(F)F)c2)c1=O [II-39],5,5,5,5,5,5,5,5
O=C1CCCC(O)=C1C(=O)c1nc2ccccc2n(-c2ccc(C(F)(F)F)cc2)c1=O [II-44],5,5,5,5,5,5,5,5
COc1ccccc1-n1c(=O)c(C(=O)C2=C(O)CCCC2=O)nc2ccccc21 [II-52],5,5,5,5,5,5,5,5
COc1cccc(-n2c(=O)c(C(=O)C3=C(O)CCCC3=O)nc3ccccc32)c1 [II-57],5,5,5,5,5,5,5,5
COc1ccc(-n2c(=O)c(C(=O)C3=C(O)CCCC3=O)nc3ccccc32)cc1 [II-62],5,5,5,5,5,5,5,4
